Test results from patent US20260234187A1, “ANTIMICROBIAL PEPTIDES” (MATERIAS S.R.L., priority 2020, published 2026).
Where two headings read alike, the source gives them in different places. Where no end group is shown, it is not given here.

Assays:
physchem = format: physicochemical; conditions: L or D configuration; ultrapure water, DMSO and DPBS
Description: The tests were carried out in three of the most common solvents used in biological applications such as: ultrapure water; DPBS (Dulbecco's Phosphate Buffered Saline), i.e., a saline buffer containing potassium chloride (KCl), monobasic potassium phosphate (KH2PO4), sodium chloride (NaCl) and dibasic sodium phosphate (Na2HPO4-7H2O) and finally in an organic solvent such as dimethylsulfoxide (DMSO).

[1] = format: physicochemical
Description: The structural and conformational characterization of the RiLK1 peptide was assessed by investigating its secondary structure by ^1H NMR spectroscopy in H2O and in a micellar solution of SDS at a concentration of 150 mM to mimic the condition of the bacterial cell membrane.
In fact, the representative structures of the RiLK1 peptide in water show a random orientation of both polar and hydrophobic amino acid side chains.
The helical structure appears well defined and stabilized by hydrophobic interactions of amino acid residues located on the opposite face. It is important to note that, in this arrangement, all the charged side chains are iso-oriented and well prone to interact with the negatively charged surface of the SDS micelles. Furthermore, the two tryptophan residues within the RiLK1 sequence are located at an optimal distance for their mutual stacking, thus contributing to the stabilization of the helix. It should be pointed out that the ^1H NMR spectra of the peptide IDR-1018-K6 (described in patent application WO2019012158) could not be acquired in the presence of micellar solutions of SDS since it is not soluble at the concentrations required to carry out these assays. […] Therefore, it is possible to assert that the NMR analysis in the presence of SDS has shown that the RiLK1 peptide of the present invention is capable of adopting the helix conformation, whereas the IDR-1018-K6 peptide (object of patent WO2019012158) has poor solubility and a heterogeneous system not suitable for NMR structural characterization (Table 2).

[2] = format: physicochemical; conditions: Tris HCL pH 7, 3 mM SDS
Description: 0.1 g/L of RiLK1 peptide was dissolved in 10 mM Tris HCL at pH 7 and 3 mM SDS. The prepared samples were incubated for 24 hours at 4° C. or 25° C. and analysed at time zero and after 24 hours.

[3] = format: physicochemical; conditions: 50 μM in 1M NaCl, 25° C.
Description: The stability analysis of the RiLK1 peptide in the presence of a high concentration saline solution (1M NaCl) was carried out by reverse phase (RP) HPLC chromatography, performed on a μBondpack C18 column. 50 μM RiLK1 peptide was dissolved in 1 M NaCl and the samples were incubated at 25° C. and monitored for 9 days.

L. monocytogenes (LM2) = format: cell-based, Listeria monocytogenes
Description: (§1) The evaluation of the Minimum Bactericidal Concentration (MBC), i.e., the lowest concentration of antimicrobial agent capable of 99.9% inhibition of bacterial growth on plates, was carried out as described in Bílikova et al, (2015, Peptides 68:190-196). […] It should be noted that the peptide object of the present invention is more powerful and efficient than the peptide IDR-1018-K6 (described in patent application WO2019012158) against the pathogenic bacteria L. monocytogenes and S. typhimurium, with bactericidal concentration values 4-fold and 7-fold lower, respectively, compared to those shown by IDR-1018-K6.

S. typhimurium = format: cell-based, Salmonella typhimurium; conditions: S. typhimurium
Description: as §1

E. coli [4] = format: cell-based, Escherichia coli
Description: as §1

E. coli [5] = experiment: bactericidal activity at 15 μM, CFU versus control; format: cell-based
Description: (§2) The bactericidal activity of further AMP peptides according to the invention, in particular of the RiLK31 peptide (RLRWVKIWKK, SEQ ID NO:31) and the RiLK3 peptide (RLRWVRIWRR, SEQ ID NO:3), was tested. The bactericidal activity was expressed as a percentage of viable cells in terms of CFU (Colony Forming Units) in a bacterial sample exposed to each peptide compared to those in a control bacterial sample in the absence of the peptide. All tests were carried out with the same peptide concentration, corresponding to 15 μM.

Listeria = experiment: bactericidal activity at 15 μM, CFU versus control; format: cell-based
Description: as §2

Salmonella = experiment: bactericidal activity at 15 μM, CFU versus control; format: cell-based
Description: as §2

Staphylococcus = experiment: bactericidal activity at 15 μM, CFU versus control; format: cell-based
Description: as §2

For RLKWVRIWRR-NH2 [RiLK1, RLKWVRIWRR], the “maximum concentration completely dissolved” value (physchem) was at most 10 mg/mL, the solubility [1] was 1000 µM and the solubility ([1]; pH 4.4) was 900 µM. The “Random (Bestsel)” value ([2]; 4° C., t = 24 hours) was 47.5%, the “Random (DichroWeb CONTIN-LL)” value ([2]; 4° C., t = 24 hours) was 38% and the “α-helix (Bestsel)” value ([2]; 4° C., t = 24 hours) was 6.5%. The “α-helix (DichroWeb CONTIN-LL)” value ([2]; 4° C., t = 24 hours) was 25%, the “β-sheet (Bestsel)” value ([2]; 4° C., t = 24 hours) was 46% and the “β-sheet (DichroWeb CONTIN-LL)” value ([2]; 4° C., t = 24 hours) was 37%. The “Random (Bestsel)” value ([2]; 25° C., t = 24 hours) was 43.6%, the “Random (DichroWeb CONTIN-LL)” value ([2]; 25° C., t = 24 hours) was 37% and the “α-helix (Bestsel)” value ([2]; 25° C., t = 24 hours) was 6.8%. The “α-helix (DichroWeb CONTIN-LL)” value ([2]; 25° C., t = 24 hours) was 24%, the “β-sheet (Bestsel)” value ([2]; 25° C., t = 24 hours) was 49.7% and the “β-sheet (DichroWeb CONTIN-LL)” value ([2]; 25° C., t = 24 hours) was 39%. For the same substance, the “Random (Bestsel)” value ([2]; t = 0) was 44.9%, the “Random (DichroWeb CONTIN-LL)” value ([2]; t = 0) was 36% and the “α-helix (Bestsel)” value ([2]; t = 0) was 17.9%. For the same substance, the “α-helix (DichroWeb CONTIN-LL)” value ([2]; t = 0) was 21%, the “β-sheet (Bestsel)” value ([2]; t = 0) was 37.1% and the “β-sheet (DichroWeb CONTIN-LL)” value ([2]; t = 0) was 43%. The yield ([3]; 5 hours) was “+6%”, the yield ([3]; 24 hours) was “+6%” and the yield ([3]; 29 hours) was “+3%”. For the same substance, the yield ([3]; 48 hours) was −1.5%^, the yield ([3]; 53 hours) was “+4.3%^” and the yield ([3]; 6 days) was −6.3%^. The yield ([3]; 9 days) was −8%, the “bactericidal concentration lower compared to IDR-1018-K6” value (L. monocytogenes (LM2); L. monocytogenes) was 4 fold and the MBC (L. monocytogenes (LM2); L. monocytogenes (LM2)) was 2 µM. For the same substance, the “bactericidal concentration lower compared to IDR-1018-K6” value (S. typhimurium) was 7 fold, the MBC (E. coli [4]) was 2 µM and the bactericidal activity (E. coli [5]) was 100%. For the same substance, the bactericidal activity (Listeria) was 99.5%, the bactericidal activity (Salmonella) was 100% and the bactericidal activity (Staphylococcus) was 96.9%^.
